From patent US8455520B2, “Soluble epoxide hydrolase inhibitors, compositions containing such compounds and methods of treatment” (Merck Sharp & Dohme Corp., priority 2007, dated 2013) come the findings set out here.

The target of the assay is T1, human sEH enzyme (Homo sapiens, UniProt P34913).
T1 construct: His-tag (N, cleaved yes); made in house; host or cells: E. coli
T1 sequence (P34913 1-555): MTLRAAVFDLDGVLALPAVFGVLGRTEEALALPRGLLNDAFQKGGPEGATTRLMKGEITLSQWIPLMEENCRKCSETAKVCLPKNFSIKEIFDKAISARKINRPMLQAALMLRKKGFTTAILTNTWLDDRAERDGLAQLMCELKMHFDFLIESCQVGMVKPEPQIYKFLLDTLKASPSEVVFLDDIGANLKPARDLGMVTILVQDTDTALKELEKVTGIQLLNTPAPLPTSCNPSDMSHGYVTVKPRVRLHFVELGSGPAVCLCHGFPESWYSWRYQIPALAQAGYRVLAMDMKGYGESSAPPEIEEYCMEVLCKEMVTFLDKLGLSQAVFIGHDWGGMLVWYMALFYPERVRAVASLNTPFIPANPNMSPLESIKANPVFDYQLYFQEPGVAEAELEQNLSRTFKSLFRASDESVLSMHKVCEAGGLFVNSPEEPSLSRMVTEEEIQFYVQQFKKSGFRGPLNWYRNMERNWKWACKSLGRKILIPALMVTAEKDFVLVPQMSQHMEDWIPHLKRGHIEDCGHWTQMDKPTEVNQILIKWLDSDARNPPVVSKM
Kind of assay: sEH human enzyme assay (fluorescence based enzyme in vitro assay). It counts as biochemical. The conditions noted are these: recombinant human sEH about 1 nM, fluorescence substrate S7 10 uM, pH7.0, 25° C.; read-out: IC50 [nM] for human sEH enzyme inhibition. The source says: Preparation of Recombinant sEH Human Enzyme
The DNA for expressing sEH was designed based on a […] sEH cDNA. Necessary Modifications were introduced to optimize for its expression both in E. coli and insect cells. The designed DNA fragment encodes a protein sequence that is identical to full length human sEH, and the DNA was synthesized in vitro. The DNA was then subcloned into the pET100 vector that will generate a fusion protein with an N-terminal His-tag. The recombinant protein was expressed in E. coli. The sEH enzyme was affinity purified by a Ni^++ column. His-tag was removed by Enter Kinase (EK) digestion. The purified enzyme aliquots were frozen and held at −80° C. for later use.
Fluorescence Based Enzyme In Vitro Assay
For each assay (100 ul), an aliquot of enzymes (about 1 nM final concentration) was incubated with a fluorescence substrate, S7 (10 uM final concentration), in sEH assay buffer (25 mM HEPES, pH7.0, 0.1 mg/ml BSA) in a 96-well plate. The kinetic reaction reading (Ex330/Em465) was conducted using a plate reader, Spectra max (Molecular Devices) at 25° C.

By IC50 is commonly meant the point on the concentration scale where inhibition reaches its midpoint. Regarding `N#CCCC1(c2ccccc2)CCCN(C(=O)Nc2ccc(Cl)cc2)C1` (stereo not drawn) [Example 46], the IC50 is 3 nM.
To `CC1(c2ccccc2)CCCN(C(=O)NC2CCc3ccccc3C2)C1` (stereo not drawn) [Example 36] belongs 1 nM.
Regarding `O=C(CCC1(c2ccccc2)CCCN(C(=O)Nc2ccc(Cl)cc2)C1)Nc1nnn[nH]1` (stereo not drawn) [Example 48], the IC50 came to 1 nM.
Regarding `CC1(c2ccccc2)CCCN(C(=O)NCc2ccc(-c3ccc4cn[nH]c4c3)cc2)C1` (stereo not drawn) [Example 43], the IC50 was 6 nM.
With `CC1(c2ccccc2)CCCN(C(=O)NC2CC2c2ccccc2)C1` (stereo not drawn) [Example 27], the IC50 worked out at 1 nM.
To `O=C(O)CCC1(c2ccc(F)cc2)CCCN(C(=O)NCCCc2ccccc2)C1` (stereo not drawn) [Example 8] belongs 6 nM; to `O=C(Nc1ccc(Cl)cc1)N1CCCC(COCc2cc(C(F)(F)F)cc(C(F)(F)F)c2)(c2ccccc2)C1` (stereo not drawn) [Example 1], 2 nM.
To `CCOC(=O)C1(Cc2cccc3ccccc23)CCCN(C(=O)Nc2ccc(C(F)(F)F)cc2)C1` (stereo not drawn) [Example 21] belongs 3 nM.
To `CC1(c2ccccc2)CCCN(C(=O)Nc2noc3ccccc23)C1` (stereo not drawn) [Example 13] belongs 59 nM.
In the case of `O=C(O)CCC1(c2ccccc2)CCCN(C(=O)Nc2ccc(Cl)cc2)C1` (stereo not drawn) [Example 3], the IC50 came out at 5 nM.
Next, `CC1(c2ccccc2)CCCN(C(=O)NC2C3CC4CC(C3)CC2C4)C1` (stereo not drawn) [Example 29]: 10 nM; `CNC(=O)CCC1(c2ccccc2)CCCN(C(=O)Nc2ccc(Cl)cc2)C1` (stereo not drawn) [Example 50]: 5 nM.
Next, `CCOC(=O)C1(Cc2c(Cl)cccc2Cl)CCCN(C(=O)Nc2ccc(C(F)(F)F)cc2)C1` (stereo not drawn) [Example 9]: under 1 nM; `O=C(Nc1ccc(Cl)cc1)N1CCCC(Cc2ccc(Cl)cc2)(c2ccccc2)C1` (stereo not drawn) [Example 5]: under 1 nM; `O=C(Nc1ccc(C(F)(F)F)cc1)N1CCCC(Cc2ccccn2)(C(=O)OCc2ccccc2)C1` (stereo not drawn) [Example 23]: 2 nM.
Next, `O=C(NC1(Cc2ccccc2)CCCN(C(=O)Nc2ccc(C(F)(F)F)cc2)C1)OCc1ccccc1` (stereo not drawn) [Example 15]: 5 nM; `CC1(c2ccccc2)CCCN(C(=O)NC2CCc3ccccc3CC2)C1` (stereo not drawn) [Example 37]: 2 nM.
`CCOC(=O)C1(Cc2nc3ccccc3[nH]2)CCCN(C(=O)Nc2ccc(C(F)(F)F)cc2)C1` (stereo not drawn) [Example 22]: the IC50 was determined as 3 nM.
In the case of `COC(=O)CCC1(c2ccc(F)cc2)CCCN(C(=O)NCCCc2ccccc2)C1` (stereo not drawn) [Example 7], the IC50 is under 1 nM.
Next, `O=C(NCc1ccc(Cl)c(Cl)c1)N1CCCC(CCc2noc(C(F)(F)F)n2)(c2ccccc2)C1` (stereo not drawn) [Example 18]: 5 nM.
For the molecule `CC1(c2ccccc2)CCCN(C(=O)NCCc2ccc3nccnc3c2)C1` (stereo not drawn) [Example 34], the IC50 came to 5 nM.
Next, `CC1N(C(=O)Nc2ccc(Cl)cc2)CCCC1(C)c1ccccc1` (stereo not drawn) [Example 4]: 5 nM; `NC(=O)CCC1(c2ccccc2)CCCN(C(=O)Nc2ccc(Cl)cc2)C1` (stereo not drawn) [Example 45]: 5 nM; `CC1(c2ccccc2)CCCN(C(=O)NCc2ccc(-c3ccc4[nH]ccc4c3)cc2)C1` (stereo not drawn) [Example 42]: 7 nM.
For the molecule `CCOC(=O)C1(Cc2nccn2Cc2ccccc2)CCCN(C(=O)Nc2ccc(C(F)(F)F)cc2)C1` (stereo not drawn) [Example 24], the IC50 was 7 nM.
Next, `CC1(c2ccccc2)CCCN(C(=O)NC[C@H]2C[C@@H]2c2ccccc2)C1` (stereo in doubt) [Example 28]: 7 nM.
Next, `CC1(c2ccccc2)CCCN(C(=O)NCc2nc3ccccc3s2)C1` (stereo not drawn) [Example 38]: 30 nM; `O=C(O)CCC1(c2ccccc2)CCCN(C(=O)Nc2ccc(-n3nc(C(F)(F)F)cc3C(F)(F)F)cc2)C1` (stereo not drawn) [Example 11]: 3 nM.
Next, `CC1(c2ccccc2)CCCN(C(=O)NCCCc2cccnc2)C1` (stereo not drawn) [Example 33]: 6 nM.
In the case of `CC1(c2ccccc2)CCCN(C(=O)NCc2ccc(-c3cccnc3)cc2)C1` (stereo not drawn) [Example 41], the IC50 amounted to 1.5 nM.
Next, `CC1(c2ccccc2)CCCN(C(=O)NCCCCc2ccccc2)C1` (stereo not drawn) [Example 31]: 1 nM; `CC1(c2ccccc2)CCCN(C(=O)NCCc2ccc(Cl)cc2)C1` (stereo not drawn) [Example 30]: under 1 nM; `Cc1nc(C2(C)CCCN(C(=O)Nc3ccc(C(F)(F)F)cc3)C2)no1` (stereo not drawn) [Example 49]: 5 nM.
To `CC1(c2ccccc2)CCCN(C(=O)NCc2ccc(-c3ccccc3Cl)cc2)C1` (stereo not drawn) [Example 40] belongs 6 nM.
Next, `O=C(Nc1ccc(C(F)(F)F)cc1)N1CCCC(Cc2ccccc2)(C(=O)NCCc2c[nH]c3ccccc23)C1` (stereo not drawn) [Example 20]: under 1 nM; `COC(=O)CCCC1(c2ccccc2)CCCN(C(=O)Nc2ccc(Cl)cc2)C1` (stereo not drawn) [Example 51]: under 1 nM.
Consider `N#CC1(Cc2ccccc2)CCCN(C(=O)Nc2ccc(C(F)(F)F)cc2)C1` (stereo not drawn) [Example 17], for which the IC50 came to 2 nM.
`O=C(O)CCC1(c2ccc(-c3ccccc3)cc2)CCCN(C(=O)Nc2ccc(OC(F)(F)F)cc2)C1` (stereo not drawn) [Example 6]: the IC50 came out at 8 nM.
To `O=C(Nc1ccc(Cl)cc1)N1CCCC(CCc2nnn[nH]2)(c2ccccc2)C1` (stereo not drawn) [Example 47] belongs 5 nM; to `O=C(O)CCCC1(c2ccccc2)CCCN(C(=O)Nc2ccc(Cl)cc2)C1` (stereo not drawn) [Example 52], 12 nM; to `CNC(=O)C1(Cc2ccccc2)CCCN(C(=O)Nc2ccc(C(F)(F)F)cc2)C1` (stereo not drawn) [Example 16], 6 nM.
Next, `CC1(c2ccccc2)CCCN(C(=O)Nc2nnc(-c3ccccc3)s2)C1` (stereo not drawn) [Example 12]: 341 nM; `CC1(c2ccccc2)CCCN(C(=O)Nc2cccnc2)C1` (stereo not drawn) [Example 32]: 306 nM; `CN(C)C(=O)C1(Cc2ccccc2)CCCN(C(=O)Nc2ccc(C(F)(F)F)cc2)C1` (stereo not drawn) [Example 25]: 3 nM.
Take `CC1(c2ccccc2)CCCN(C(=O)NCc2ccc(-c3cccc4cnccc34)cc2)C1` (stereo not drawn) [Example 44]: the IC50 was 3 nM.
Next, `CC1(c2ccccc2)CCCN(C(=O)NCC2CCc3ccccc3C2)C1` (stereo not drawn) [Example 35]: 2 nM.
Next, `O=C(Nc1ccc(C(F)(F)F)cc1)N1CCCC(CO)(Cc2ccccc2)C1` (stereo not drawn) [Example 14]: 2 nM; `COC(=O)CCC1(c2ccccc2)CCCN(C(=O)Nc2ccc(-n3nc(C(F)(F)F)cc3C(F)(F)F)cc2)C1` (stereo not drawn) [Example 10]: 3 nM.
